From patent US8507692B2, “Ester compound and use thereof” (Sumitomo Chemical Company, Limited, priority 2010, dated 2013) come the findings set out here.

Common to all, as to type: in vivo
In experiment [1] the test system is houseflies (Musca domestica). Description: Test Example 4: oil solution spray knock-down test on houseflies in glass chamber. Particulars: 0.025% (w/v) oil solution, 0.7 ml sprayed into 70 cm cubic glass chamber; adult houseflies; five minutes after spraying. Here is the method:
(§1) Zero point zero two five (0.025) part of the compound of the present invention (1) and (13) was dissolved in 10 parts of isopropyl alcohol, and the solution was mixed with 89.975 parts of deodorized kerosene to prepare a 0.025% (w/v) oil solution.
Ten adult houseflies (Musca domestica) were released in a cubic glass chamber having each side of 70 cm, and 0.7 ml of the oil solution of the compound of the present invention (1) and (13) was sprayed into the chamber through a small window on the side of the chamber using a spraying gun at a pressure of 0.9 kg/cm^2. Five minutes after spraying, the number of knocked-down flies was counted and a knock-down ratio was determined. A knocked-down ratio was calculated by the following equation. Knocked-down ratio(%)=(Number of knocked-down flies/Number of test flies)×100

Experiment [2] concerns American cockroaches (Periplaneta Americana). Kind of experiment: Test Example 1: oil solution spray knock-down test on American cockroaches. Particulars: 0.1% (w/v) oil solution, 1.5 ml sprayed, adult American cockroaches. As for the experimental part:
Zero point one (0.1) part of the compound of the present inventions (1) to (6) was dissolved in 10 parts of isopropyl alcohol and the solution was mixed with 89.9 parts of deodorized kerosene to prepare a 0.1% (w/v) oil solution.
(§2) Six adult American cockroaches (Periplaneta Americana, 3 males and 3 females) were released in a test container (diameter 12.5 cm, 10 cm high, the bottom face is made of 16 mesh metallic wire), the inner face on which butter was applied, and the container was set at the bottom of a test chamber (bottom face: 46 cm×46 cm, height: 70 cm). Each 1.5 ml of the oil solution of the compound of the present invention (1) to (6) was sprayed using a spray gun at a pressure of 0.4 kg/cm^2 from 60 cm higher than the upper face of the container. Thirty seconds after the spraying, the container was pulled out from the chamber. After a prescribed time, the number of knocked-down cockroaches was counted and a knock-down ratio was determined (repeated twice). The knocked-down ratio was calculated by the following equation. Knocked-down ratio(%)=(Number of knocked-down cockroaches/Number of test cockroaches)×100
For comparison, the test was conducted in the same manner as the above, except for using 2,5-dioxo-3-(2-propynyl)imidazolidinylmethyl=(1R)-trans-3-(2-methyl-1-propenyl)-2,2-dimethylcyclopropane carboxylate (compound described in Pesticide Science, 10, p. 291 (1979), hereinafter referred to as the comparative compound (1)) represented by the following formula:
[drawing 41] and 2,5-dioxo-3-(2-propynyl)imidazolidinylmethyl=(1R)-cis-3-((Z)-2-cyano-2-methoxyethenyl)-2,2-dimethylcyclopropane carboxylate (compound described in JP-A-60-16962, hereinafter referred to as the comparative compound (2)) represented by the following formula: […]

The subject of experiment [3] is common mosquitoes (Culex pipens pallens). Kind of experiment: Test Example 3: oil solution spray knock-down test on common mosquitoes in glass chamber. Particulars: 0.025% (w/v) oil solution sprayed into 70 cm cubic glass chamber; adult female common mosquitoes; three minutes after spraying. Here is the method:
as §1
Ten adult female common mosquitoes (Culex pipens pallens) were released in a cubic glass chamber having each side of 70 cm. The oil solution of the compound of the present invention (1) and (13) was sprayed into the chamber through a small window on the side of the chamber using a spraying gun at a pressure of 0.9 kg/cm^2. Three minutes after spraying, the number of knocked-down mosquitoes was counted and a knock-down ratio was determined. A knocked-down ratio was calculated by the following equation. Knocked-down ratio(%)=(Number of knocked-down mosquitoes/Number of test mosquitoes)×100

Experiment [4] has as its system American cockroaches (Periplaneta Americana). Description: Test Example 8: oil solution spray knock-down test on American cockroaches, 3 minutes. The settings on record: 0.1% (w/v) oil solution, 1.5 ml sprayed, adult American cockroaches. Here is the method: Zero point one (0.1) part of the compound of the present inventions (1) to (6) and (9) to (12) was dissolved in 10 parts of isopropyl alcohol and the solution was mixed with 89.9 parts of deodorized kerosene to prepare a 0.1% (w/v) oil solution.
as §2, with “(6) and (9) to (12)” for “(6)”, “Three minutes after spraying,” for “After a prescribed time,”

In experiment [5] the test system is German cockroaches (Blattella germanica). Description: Test Example 2: oil solution spray knock-down test on German cockroaches. The settings on record: 0.00625% (w/v) oil solution, 1.5 ml sprayed, adult German cockroaches. As for the experimental part:
Zero point zero six two five (0.00625) part of the compound of the present inventions (1) to (6) and (9) to (12) was dissolved in 10 parts of isopropyl alcohol and the solution was mixed with 89.99375 parts of deodorized kerosene to prepare a 0.00625% (w/v) oil solution.
Ten adult German cockroaches (Blattella germanica, 5 males and 5 females) were released in a test container (diameter 8.75 cm, 7.5 cm high, the bottom face is made of 16 mesh metallic wire), the inner face on which butter was applied, and the container was set at the bottom of a test chamber (bottom face: 46 cm×46 cm, height: 70 cm).
Each 1.5 ml of the oil solution of the compound of the present invention (1) to (6) and (9) to (12) was sprayed using a spray gun at a pressure of 0.4 kg/cm^2 from 60 cm higher than the upper face of the container. Thirty seconds after the spraying, the container was pulled out from the chamber. After a prescribed time, the number of knocked-down cockroaches was counted and a knock-down ratio was determined (repeated once). A knocked-down ratio was calculated by the following equation. Knocked-down ratio(%)=(Number of knocked-down cockroaches/Number of test cockroaches)×100 The results (2 minutes after spraying) are shown in Table 2.

SMILES strings stand for the structures.

With `C#CCN1CC(=O)N(COC(=O)[C@@H]2[C@@H](C=C(C#N)SC)C2(C)C)C1=O` (relative stereo) [compound of the present invention (1), 2,5-dioxo-3-(2-propynyl)imidazolidinylmethyl=(1R)-trans-3-[(1EZ)-2-cyano-2-(methylthio)ethenyl]-2,2-dimethylcyclopropane carboxylate], the Knocked-down ratio in experiment [1] and in experiment [3] was 100% in each case. Moreover, the “Knock-down ratio (%) 2 minutes after spraying” value (from here on “Knock-down ratio (%) 2 minutes”) in experiment [2] is recorded as 100%.
In the case of `C#CCN1CC(=O)N(COC(=O)[C@@H]2[C@@H](C=C(C#N)SCC)C2(C)C)C1=O` (relative stereo) [compound of the present invention (2), 2,5-dioxo-3-(2-propynyl)imidazolidinylmethyl=(1R)-trans-3-[(1EZ)-2-cyano-2-(ethylthio)ethenyl]-2,2-dimethylcyclopropane carboxylate], the “Knock-down ratio (%) 2 minutes” value in experiment [2] worked out at 100%.
In the case of `C#CCN1CC(=O)N(COC(=O)[C@@H]2[C@@H](C=C(C#N)SCC)C2(C)C)C1=O` (relative stereo) [compound of the present invention (9), 2,5-dioxo-3-(2-propynyl) imidazolidinylmethyl=(1R)-trans-3-[(1EZ)-2-cyano-2-(ethylthio)ethenyl]-2,2-dimethylcyclopropane carboxylate], the “Knock-down ratio (%) 3 minutes after spraying” value (“Knock-down ratio (%) 3 minutes” for short) in experiment [4] was 100%. For the same compound, in experiment [5], the “Knock-down ratio (%) 2 minutes” value came out at 100%.
Take `C#CCN1CC(=O)N(COC(=O)[C@@H]2[C@@H](C=C(C#N)SC)C2(C)C)C1=O` (relative stereo) [compound of the present invention (10), 2,5-dioxo-3-(2-propynyl)imidazolidinylmethyl=(1R)-trans-3-[(1EZ)-2-cyano-2-(methylthio)ethenyl]-2,2-dimethylcyclopropane carboxylate]: the “Knock-down ratio (%) 3 minutes” value in experiment [4] amounted to 100%. For the same compound, the “Knock-down ratio (%) 2 minutes” value in experiment [5] was 100%.
Take `C#CCN1CC(=O)N(COC(=O)[C@@H]2[C@@H](C=C(C)C)C2(C)C)C1=O` [comparative compound (1), 2,5-dioxo-3-(2-propynyl)imidazolidinylmethyl=(1R)-trans-3-(2-methyl-1-propenyl)-2,2-dimethylcyclopropane carboxylate, reference compound]: the “Knock-down ratio (%) 2 minutes” value in experiment [2] was found to be 58%.
Same read-out and setting: then `C#CCN1CC(=O)N(COC(=O)[C@@H]2[C@H](/C=C(/C#N)OC)C2(C)C)C1=O` [comparative compound (2), 2,5-dioxo-3-(2-propynyl)imidazolidinylmethyl=(1R)-cis-3-((Z)-2-cyano-2-methoxyethenyl)-2,2-dimethylcyclopropane carboxylate, reference compound], with 42%.
In the case of `C#CCN1CC(=O)N(COC(=O)[C@@H]2[C@@H](C=C(C#N)SCCC)C2(C)C)C1=O` [compound of the present invention (3), 2,5-dioxo-3-(2-propynyl)imidazolidinylmethyl=(1R)-trans-3-[(1EZ)-2-cyano-2-(propylthio)ethenyl]-2,2-dimethylcyclopropane carboxylate], the “Knock-down ratio (%) 2 minutes” value in experiment [2] and in experiment [5] was 100% each time. The “Knock-down ratio (%) 3 minutes” value in experiment [4] was found to be 100%.
`C#CCN1CC(=O)N(COC(=O)[C@@H]2[C@@H](C=C(C#N)SCCCC)C2(C)C)C1=O` [compound of the present invention (5), 2,5-dioxo-3-(2-propynyl)imidazolidinylmethyl=(1R)-trans-3-[(1EZ)-2-cyano-2-(butylthio)ethenyl]-2,2-dimethylcyclopropane carboxylate]: the “Knock-down ratio (%) 2 minutes” value in experiment [2] stood at 83%; in experiment [5], 100%. In addition, the “Knock-down ratio (%) 3 minutes” value in experiment [4] amounted to 100%.
As to `C#CCN1CC(=O)N(COC(=O)[C@@H]2[C@@H](C=C(C#N)SC(C)C)C2(C)C)C1=O` [compound of the present invention (6), 2,5-dioxo-3-(2-propynyl)imidazolidinylmethyl=(1R)-trans-3-[(1EZ)-2-cyano-2-(isopropylthio)ethenyl]-2,2-dimethylcyclopropane carboxylate], the “Knock-down ratio (%) 2 minutes” value in experiment [2] stood at 92%; in experiment [5], 100%. Further, the “Knock-down ratio (%) 3 minutes” value in experiment [4] is reported as 100%.
Regarding `C#CCN1CC(=O)N(COC(=O)[C@@H]2[C@@H](/C=C(\C#N)SCC)C2(C)C)C1=O` [compound of the present invention (13), 2,5-dioxo-3-(2-propynyl)imidazolidinylmethyl=(1R)-trans-3-[(1E)-2-cyano-2-(ethylthio)ethenyl]-2,2-dimethylcyclopropane carboxylate], the Knocked-down ratio in experiment [1] and in experiment [3] was 100% each time. The “Knock-down ratio (%) 3 minutes” value in experiment [4] was 100%. Further, the “Knock-down ratio (%) 2 minutes” value in experiment [5] came out at 100%.
